Measured values from patent publication US9790209B2, “Kinase inhibitors” (Respivert Limited, priority 2012, dated 2017).
pIC50: −log10 of the molar value.

What was measured:
[1] = test system: TNBS-induced colitis in mice; assay: TNBS-induced colitis in mice; format: in vivo; parameters: Ulcer grade / LP inflammation: scale not given here; details: Experiment 1, 2.5 mg/kg oral BID, 2 days
Experimental: On Day 0 of the study TNBS (200 μL) is administered intra-colonically via a plastic catheter followed by BID dosing of the vehicle, reference or test compound for 2 or 4 days. During the study animals are weighed every day and stool observations are made and recorded as a score, based on stool consistency. At the time of sacrifice on Day 2 (or Day 4) the large intestine is removed and the length and weight recorded. Sections of the colon are taken for either MPO analysis to determine neutrophil infiltration or for histopathology involving scoring to determine disease severity.

GSK3α = GSK3α (Homo sapiens (Human), UniProt P49840); assay: GSK 3α enzyme inhibition (Method 2), Z-LYTE FRET; format: biochemical
Sequence of GSK3α (P49840 whole entry): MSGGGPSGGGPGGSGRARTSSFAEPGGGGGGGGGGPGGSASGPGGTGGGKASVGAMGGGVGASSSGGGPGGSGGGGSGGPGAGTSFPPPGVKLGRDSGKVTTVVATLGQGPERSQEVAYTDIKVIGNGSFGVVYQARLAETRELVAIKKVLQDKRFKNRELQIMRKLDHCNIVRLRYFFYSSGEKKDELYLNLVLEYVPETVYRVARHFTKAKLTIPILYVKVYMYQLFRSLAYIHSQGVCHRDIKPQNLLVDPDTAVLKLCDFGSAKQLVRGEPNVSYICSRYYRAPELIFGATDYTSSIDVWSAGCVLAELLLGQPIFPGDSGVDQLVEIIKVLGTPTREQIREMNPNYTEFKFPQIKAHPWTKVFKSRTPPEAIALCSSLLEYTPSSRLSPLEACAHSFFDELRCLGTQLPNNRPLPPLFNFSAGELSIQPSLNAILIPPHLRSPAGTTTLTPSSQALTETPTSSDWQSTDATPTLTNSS
Experimental: (§1) The enzyme inhibitory activities of compounds disclosed herein are determined by FRET using synthetic peptides labelled with both donor and acceptor fluorophores (Z-LYTE, Invitrogen Ltd., Paisley, UK).
The inhibitory activities of compounds of the invention against the GSK 3α enzyme isoform (Invitrogen), are evaluated by determining the level of activation/phosphorylation of the target peptide. The GSK3-α protein (500 ng/mL, 2.5 μL) is mixed with the test compound (2.5 μL at either 4 μg/mL, 0.4 μg/mL, 0.04 μg/mL, or 0.004 μg/mL) for 2 hr at RT. The FRET peptide (8 μM, 2.5 μL), which is a phosphorylation target for GSK3α, and ATP (40 μM, 2.5 μL) are then added to the enzyme/compound mixture and the resulting mixture incubated for 1 hr. Development reagent (protease, 5 μL) is added for 1 hr prior to detection in a fluorescence microplate reader (Varioskan® Flash, ThermoFisher Scientific).
(§2) In all cases, the site-specific protease cleaves non-phosphorylated peptide only and eliminates the FRET signal. Phosphorylation levels of each reaction are calculated using the ratio of coumarin emission (donor) over fluorescein emission (acceptor), for which high ratios indicate high phosphorylation and low ratios indicate low phosphorylation levels. The percentage inhibition of each reaction is calculated relative to non-inhibited control and the 50% inhibitory concentration (IC50 value) is then calculated from the concentration-response curve.
This method follows the same steps as Method 1 above, but utilises a shorter period of mixing of the test compound (105 minutes instead of 2 hours) with the GSK3-α protein.

PBMCs [2] = assay: LPS-induced TNFα/IL-8 release in PBMC cells; format: cell-based; details: Homo sapiens, LPS-stimulated PBMCs, IL-8, read-out: IC50 Values for Inhibition of Cytokine Release PBMCs IL-8
Experimental: Peripheral blood mononuclear cells (PBMCs) from healthy subjects are separated from whole blood using a density gradient (Lymphoprep, Axis-Shield Healthcare). The PBMCs are seeded in 96 well plates and treated with compounds at the desired concentration for 2 hours before addition of 1 ng/mL LPS (Escherichia Coli 0111:B4 from Sigma Aldrich) for 24 hours under normal tissue culture conditions (37° C., 5% CO2). The supernatant is harvested for determination of IL-8 and TNFα concentrations by sandwich ELISA (Duo-set, R&D systems) and read on the fluorescence microplate reader (Varioskan® Flash, ThermoFisher Scientific). The concentration at 50% inhibition (IC50) of IL-8 and TNFα production is calculated from the dose response curve.

p38 MAPKα = p38 MAPKα (Homo sapiens (Human), UniProt Q16539); assay: p38 MAPKα enzyme inhibition (Method 2), Z-LYTE FRET; format: biochemical
Sequence of p38 MAPKα (Q16539 whole entry): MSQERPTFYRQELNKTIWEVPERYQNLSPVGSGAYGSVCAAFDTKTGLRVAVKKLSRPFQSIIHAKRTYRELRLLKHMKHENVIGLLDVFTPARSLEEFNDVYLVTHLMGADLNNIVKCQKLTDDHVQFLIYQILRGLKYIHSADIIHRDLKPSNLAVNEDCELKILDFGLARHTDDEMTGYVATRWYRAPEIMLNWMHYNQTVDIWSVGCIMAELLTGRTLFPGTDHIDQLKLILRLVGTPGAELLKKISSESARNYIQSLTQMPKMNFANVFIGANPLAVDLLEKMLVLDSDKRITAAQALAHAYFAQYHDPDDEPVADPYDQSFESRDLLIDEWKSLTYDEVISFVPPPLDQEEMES
Experimental: as §1
The inhibitory activities of test compounds against the p38 MAPKα isoform (MAPK14: Invitrogen), are evaluated indirectly by determining the level of activation/phosphorylation of the down-stream molecule, MAPKAP-K2. The p38 MAPKα protein (80 ng/mL, 2.5 μL) is mixed with the test compound (2.5 μL of either 4 μg/mL, 0.4 μg/mL, 0.04 μg/mL or 0.004 μg/mL) for 2 hr at RT. […] The mixture is incubated for 1 hr at RT. Development reagent (protease, […]) is added for 1 hr prior to detection in a fluorescence microplate reader (Varioskan® Flash, ThermoFisher Scientific).
This method follows the same steps as Method 1 above, but utilises a higher concentration of the p38 MAPKα protein (2.5 μL of 200 ng/mL protein instead of 2.5 μL of 80 ng/mL protein) for mixing with the test compound.
as §2

c-Src = c-Src (Homo sapiens (Human), UniProt P12931); assay: c-Src enzyme inhibition, Z-LYTE FRET; format: biochemical
Sequence of c-Src (P12931 whole entry, looked up): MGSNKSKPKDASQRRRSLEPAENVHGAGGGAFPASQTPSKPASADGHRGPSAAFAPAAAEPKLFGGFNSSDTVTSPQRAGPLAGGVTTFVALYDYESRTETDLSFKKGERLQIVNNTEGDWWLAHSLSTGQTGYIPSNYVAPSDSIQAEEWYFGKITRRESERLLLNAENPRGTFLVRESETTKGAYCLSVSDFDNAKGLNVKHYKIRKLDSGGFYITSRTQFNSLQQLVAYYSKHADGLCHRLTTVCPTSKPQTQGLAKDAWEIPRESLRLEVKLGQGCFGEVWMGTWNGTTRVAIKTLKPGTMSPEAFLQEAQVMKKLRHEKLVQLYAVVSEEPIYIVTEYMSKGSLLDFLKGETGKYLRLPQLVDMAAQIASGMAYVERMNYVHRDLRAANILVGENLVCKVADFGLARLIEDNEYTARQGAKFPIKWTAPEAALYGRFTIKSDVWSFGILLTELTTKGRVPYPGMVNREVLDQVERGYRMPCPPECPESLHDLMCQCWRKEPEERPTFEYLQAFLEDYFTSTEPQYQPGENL
Experimental: as §1
(§3) The inhibitory activities of compounds of the invention against c-Src and Syk enzymes (Invitrogen), are evaluated in a similar fashion to that described hereinabove. The relevant enzyme (3000 ng/mL or 2000 ng/mL respectively, 2.5 μL) is incubated with the test compound (either 4 μg/mL, 0.4 μg/mL, 0.04 μg/mL, or 0.004 μg/mL, 2.5 μL each) for 2 hr at RT. The FRET peptides (8 μM. 2.5 μL), and appropriate ATP solutions (2.5 μL, 800 μM for c-Src, and 60 μM ATP for Syk) are then added to the enzymes/compound mixtures and incubated for 1 hr. Development reagent (protease, 5 μL) is added for 1 hr prior to detection in a fluorescence microplate reader (Varioskan® Flash, ThermoFisher Scientific).
as §2

Syk = Syk (Homo sapiens (Human), UniProt P43405); assay: Syk enzyme inhibition, Z-LYTE FRET; format: biochemical
Experimental: as §1, §3, §2

PBMCs [3] = assay: IL-2 and IFN gamma release in CD3/CD28 stimulated PBMC cells; format: cell-based; details: Homo sapiens
Experimental: PBMCs from healthy subjects are separated from whole blood using a density gradient (Lymphoprep, Axis-Shield Healthcare). Cells are added to a 96 well plate pre-coated with a mixture of CD3/CD38 monoclonal antibodies (0.3 μg/mL eBioscience and 3 μg/mL BD Pharmingen respectively). Compound at the desired concentration is then added to the wells and the plate left for 3 days under normal tissue culture conditions. Supernatants are harvested and IL-2 and IFN gamma release determined by Sandwich ELISA (Duo-set, R&D System). The IC50 is determined from the dose response curve.

[4] = IL-2, read-out: IC50 Values for Inhibition of Cytokine Release PBMCs IL-2

| Compound | pIC50 (GSK3α) | pIC50 (PBMCs [2]) | also measured |
| --- | --- | --- | --- |
| CCCC1O[C@@H]2C[C@H]3[C@@H]4CCC5=CC(=O)C=C[C@]5(C)[C@H]4[C@@H](O)C[C@]3(C)[C@]2(C(=O)CO)O1 (stereo partly shown) [Budesonide, reference compound] |  |  | LP inflammation ([1]; TNBS + Vehicle 3.9 ± 0.3): 2.5 ± 0.4; Ulcer grade ([1]; TNBS + Vehicle 4.0 ± 0.5): 2.9 ± 0.6 |
| C#CC(C)(C)c1cc(NC(=O)Nc2ccc(Oc3ccnc(Nc4cc(OC)cc(C(=O)NCCN5CCOCC5)c4)n3)c3ccccc23)n(-c2ccc(C)cc2)n1 [Example 4, 3-Methoxy-5-((4-((4-(3-(3-(2-methylbut-3-yn-2-yl)-1-(p-tolyl)-1H-pyrazol-5-yl)ureido)-naphthalen-1-yl)oxy)pyrimidin-2-yl)amino)-N-(2-morpholinoethyl)benzamide] | 6.27 | 9.30 |  |
| C#CC(C)(C)c1cc(NC(=O)Nc2ccc(Oc3ccnc(Nc4cccc(OCCN5CCOCC5)c4)n3)c3ccccc23)n(-c2ccc(C)cc2)n1 [Example 5, 1-(3-(2-Methylbut-3-yn-2-yl)-1-(p-tolyl)-1H-pyrazol-5-yl)-3-(4-((2-((3-(2-morpholinoethoxy)phenyl)amino)pyrimidin-4-yl)oxy)naphthalen-1-yl)urea] | 6.22 | 9.00 |  |
| C#CC(C)(C)c1cc(NC(=O)Nc2ccc(Oc3ccnc(Nc4cccc(OCCN(C)C)c4)n3)c3ccccc23)n(-c2ccc(C)cc2)n1 [Example 6, 1-(4-((2-((3-(2-(Dimethylamino)ethoxy)phenyl)amino)pyrimidin-4-yl)oxy)naphthalen-1-yl)-3-(3-(2-methylbut-3-yn-2-yl)-1-(p-tolyl)-1H-pyrazol-5-yl)urea] | 6.61 | 9.22 |  |
| C#CC(C)(C)c1cc(NC(=O)Nc2ccc(Oc3ccnc(Nc4cc(OC)cc(OCCN5CCOCC5)c4)n3)c3ccccc23)n(-c2ccc(C)cc2)n1 [Example 8, 1-(4-((2-((3-Methoxy-5-(2-morpholinoethoxy)phenyl)amino)pyrimidin-4-yl)oxy)-naphthalen-1-yl)-3-(3-(2-methylbut-3-yn-2-yl)-1-(p-tolyl)-1H-pyrazol-5-yl)urea] | 5.59 | 8.85 | pIC50 (c-Src): 7.66; pIC50 (Syk): 7.51 |
| C#CC(C)(C)c1cc(NC(=O)Nc2ccc(Oc3ccnc(Nc4cccc(OCCN(C)C)n4)n3)c3ccccc23)n(-c2ccc(C)cc2)n1 [Example 10, 1-(4-((2-((6-(2-(Dimethylamino)ethoxy)pyridin-2-yl)amino)pyrimidin-4-yl)oxy)naphthalen-1-yl)-3-(3-(2-methylbut-3-yn-2-yl)-1-(p-tolyl)-1H-pyrazol-5-yl)urea] | 5.75 | 8.77 | pIC50 (p38 MAPKα): 7.34; pIC50 (PBMCs [3]; [4]): 8.15 |
| C#CC(C)(C)c1cc(NC(=O)Nc2ccc(Oc3ccnc(Nc4cccc(OCCN5CCOCC5)n4)n3)c3ccccc23)n(-c2ccc(C)cc2)n1 [Example 16, 1-(3-(2-Methylbut-3-yn-2-yl)-1-(p-tolyl)-1H-pyrazol-5-yl)-3-(4-((2-((6-(2-morpholinoethoxy)pyridin-2-yl)amino)pyrimidin-4-yl)oxy)naphthalen-1-yl)urea] | < 5.00 | 7.75 | pIC50 (p38 MAPKα): 6.83; pIC50 (c-Src): 7.68; pIC50 (Syk): 6.46 |
| C#CC(C)(C)c1cc(NC(=O)Nc2ccc(Oc3ccnc(Nc4cccc(OCCOCCOCCOC)n4)n3)c3ccccc23)n(-c2ccc(C)cc2)n1 [Example 17, 1-(4-((2-((6-(2-(2-(2-Methoxyethoxy)ethoxy)ethoxy)pyridin-2-yl)amino)pyrimidin-4-yl)oxy)naphthalen-1-yl)-3-(3-(2-methylbut-3-yn-2-yl)-1-(p-tolyl)-1H-pyrazol-5-yl)urea] | < 5.00 | 7.52 |  |

Further lines, with some results ahead:

| pIC50 (GSK3α) | Compound | pIC50 (PBMCs [2]) | also measured |
| --- | --- | --- | --- |
| < 5.00 | C#CC(C)(C)c1cc(NC(=O)Nc2ccc(Oc3ccnc(Nc4ccccc4)c3)c3ccccc23)n(-c2ccc(C)cc2)n1 [Example 7, 1-(3-(2-Methylbut-3-yn-2-yl)-1-(p-tolyl)-1H-pyrazol-5-yl)-3-(4-((2-(phenylamino)pyridin-4-yl)oxy)naphthalen-1-yl)urea] | 8.40 | pIC50 (p38 MAPKα): 6.57; pIC50 (c-Src): 7.09; pIC50 (Syk): 6.73; pIC50 (PBMCs [3]; IFNγ, read-out: IC50 Values for Inhibition of Cytokine Release PBMCs IFNγ): 7.66; pIC50 (PBMCs [3]; [4]): 6.86 |
| < 5.00 | C#CC(C)(C)c1cc(NC(=O)Nc2ccc(Oc3ccnc(Nc4cc(C)c5[nH]ncc5c4)n3)c(Cl)c2Cl)n(-c2ccc(C)cc2)n1 [Example 9, 1-(2,3-Dichloro-4-((2-((7-methyl-1H-indazol-5-yl)amino)pyrimidin-4-yl)oxy)phenyl)-3-(3-(2-methylbut-3-yn-2-yl)-1-(p-tolyl)-1H-pyrazol-5-yl)urea] | 8.12 |  |
| < 5.00 | C#CC(C)(C)c1cc(NC(=O)Nc2ccc(Oc3ccnc(Nc4cc(OCCN(C)C)ccn4)n3)c3ccccc23)n(-c2ccc(C)cc2)n1 [Example 11, 1-(4-((2-((4-(2-(Dimethylamino)ethoxy)pyridin-2-yl)amino)pyrimidin-4-yl)oxy)naphthalen-1-yl)-3-(3-(2-methylbut-3-yn-2-yl)-1-(p-tolyl)-1H-pyrazol-5-yl)urea] | 7.97 |  |
